Results on three compounds are retold here after patent publication US9200051B2, “Peptide compound” (TAKEDA PHARMACEUTICAL COMPANY LIMITED, priority 2013, dated 2015).

Common to all, as to format: cell-based
One assay deals with T1, human GIPR (Homo sapiens, UniProt P48546).
T1 construct: expressed in transfected cells; host or cells: CHO-K1 (CRE-LUC/CHO-K1), plasmid hGIPR/pMSRα-neo
T1 sequence (P48546 22-466): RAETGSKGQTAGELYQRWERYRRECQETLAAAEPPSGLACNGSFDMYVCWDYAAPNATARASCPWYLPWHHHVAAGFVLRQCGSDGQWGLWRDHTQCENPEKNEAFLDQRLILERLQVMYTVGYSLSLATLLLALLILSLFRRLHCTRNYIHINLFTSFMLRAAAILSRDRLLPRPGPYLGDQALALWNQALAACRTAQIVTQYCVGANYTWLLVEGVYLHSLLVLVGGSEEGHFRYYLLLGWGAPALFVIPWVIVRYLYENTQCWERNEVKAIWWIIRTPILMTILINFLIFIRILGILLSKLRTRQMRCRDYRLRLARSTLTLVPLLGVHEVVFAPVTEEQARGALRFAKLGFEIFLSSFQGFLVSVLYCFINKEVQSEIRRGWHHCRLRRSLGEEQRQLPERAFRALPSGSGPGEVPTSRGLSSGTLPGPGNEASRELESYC
Description: Agonist activity against human GIPR, CRE-luciferase reporter assay (rise in intracellular cAMP) in hGIPR/CRE-LUC/CHO-K1 cells. An excerpt:
(§1) Evaluation of agonist activity against human GIPR, human GLP-1R and human glucagon R using rise in intracellular cAMP concentration as index
The human GIPR gene having a sequence identical to the sequence of GenBank Accession No. U39231 was cloned into pMSRα-neo vector to prepare hGIPR/pMSRα-neo.
(§2) The luciferase reporter gene having an upstream cAMP response sequence was introduced to CHO-K1 cells to construct CRE-LUC/CHO-K1 cells.
The plasmid hGIPR/pMSRα-neo obtained in (1) was introduced to the CRE-LUC/CHO-K1 cells obtained in (2) to obtain transformants. Next, a cell line induced to express luciferase, i.e., hGIPR/CRE-LUC/CHO-K1 cells, were selected from the obtained transformants by the addition of GIP.
(§3) The hGIPR/CRE-LUC/CHO-K1 cells were inoculated at a cell density of 25 μL/well (5×10^4 cells/well) to a 384-well white plate (Corning), and cultured overnight in Ham F12 medium containing 10% fetal bovine serum, 100 U/mL penicillin and 100 μg/mL streptomycin in a CO2 incubator of 37° C. A medium containing a test compound was added at a concentration of 5 μL/well to the cells, and the resultant cells were incubated for 4 hours in a CO2 incubator of 37° C. to give the final concentration of 1 μM. PicaGene LT7.5 (Toyo Ink Co., Ltd.) was added thereto at a concentration of 30 μL/well, and the mixture was shaken with light shielded. After 30 minutes, the luciferase activity was measured using a plate reader Envision (PerkinElmer). The luciferase activity in the presence of 10 nM GIP was defined as 100%, and the luciferase activity from the addition of DMSO instead of the test compound was defined as 0%. The GIPR agonist activity was calculated with a rise in intracellular cAMP concentration as an index.

The target in the next assay is T2, human GLP-1R (Homo sapiens, UniProt P43220).
T2 construct: expressed in transfected cells; host or cells: CHO-K1, plasmids hGLP-1/pIRESneo3 and Cre-luc(Zeo)
T2 sequence (P43220 24-463): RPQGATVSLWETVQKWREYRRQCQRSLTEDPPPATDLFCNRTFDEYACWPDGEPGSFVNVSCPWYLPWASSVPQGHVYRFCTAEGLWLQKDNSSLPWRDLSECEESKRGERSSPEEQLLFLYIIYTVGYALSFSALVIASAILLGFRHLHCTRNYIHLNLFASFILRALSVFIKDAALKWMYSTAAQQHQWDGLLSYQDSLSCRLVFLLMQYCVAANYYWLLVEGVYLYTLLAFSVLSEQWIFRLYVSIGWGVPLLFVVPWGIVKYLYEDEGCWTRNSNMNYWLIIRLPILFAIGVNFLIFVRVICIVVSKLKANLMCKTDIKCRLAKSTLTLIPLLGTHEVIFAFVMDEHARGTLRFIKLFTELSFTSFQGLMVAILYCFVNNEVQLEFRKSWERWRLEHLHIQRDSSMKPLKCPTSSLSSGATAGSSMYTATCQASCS
Description: Agonist activity against human GLP-1R, CRE-luciferase reporter assay in hGLP-1R/CRE-luc/CHO-K1 cells.
From the text: as §1
Four copies of the cAMP response sequence and the Zeocin resistance gene were introduced to pGL3(R2.2)-Basic Vector (Promega) to construct Cre-luc(Zeo) reporter plasmid.
The human GLP-1R gene having a sequence identical to the sequence of GenBank Accession No. NM_002062 was cloned into pIRESneo3 vector to prepare hGLP-1/pIRESneo3.
The Cre-luc(Zeo) obtained in (3) and the plasmid hGLP-1/pIRESneo3 obtained in (5) were introduced to CHO-K1 cells to obtain transformants. Next, a cell line induced to express luciferase, i.e., hGLP-1R/CRE-luc/CHO-K1 cells, were selected from the obtained transformants by the addition of GLP-1.
as §3
The GLP-1R agonist activity was assayed in the same way as above using the hGLP-1R/CRE-luc/CHO-K1 cells. The luciferase activity in the presence of 10 nM GLP-1 was defined as 100%, and the luciferase activity from the addition of DMSO instead of the test compound was defined as 0%. The GLP-1R agonist activity was calculated with a rise in intracellular cAMP concentration as an index.

In a further assay the target is T3, human glucagon R (Homo sapiens, UniProt P47871).
T3 construct: expressed in transfected cells; host or cells: CHO-K1 (CRE-LUC/CHO-K1), plasmid hGlucagonR/pMSRα-neo
T3 sequence (P47871 26-477): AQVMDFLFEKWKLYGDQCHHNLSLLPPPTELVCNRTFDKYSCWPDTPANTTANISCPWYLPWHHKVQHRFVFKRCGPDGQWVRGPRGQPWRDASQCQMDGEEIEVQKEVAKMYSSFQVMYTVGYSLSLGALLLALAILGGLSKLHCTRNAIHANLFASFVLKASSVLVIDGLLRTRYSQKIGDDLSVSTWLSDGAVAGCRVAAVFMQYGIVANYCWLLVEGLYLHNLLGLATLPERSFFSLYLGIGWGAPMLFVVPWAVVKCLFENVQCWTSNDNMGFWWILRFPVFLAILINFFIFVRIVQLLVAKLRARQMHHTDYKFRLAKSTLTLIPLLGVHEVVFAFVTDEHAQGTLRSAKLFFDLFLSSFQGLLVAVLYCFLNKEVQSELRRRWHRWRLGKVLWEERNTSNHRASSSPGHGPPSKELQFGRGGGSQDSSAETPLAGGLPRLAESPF
Description: Agonist activity against human glucagon R, CRE-luciferase reporter assay in hGlucagonR/CRE-LUC/CHO-K1 cells.
From the text: as §1, §2
The human glucagon R gene having a sequence identical to the sequence of GenBank Accession No. NM_000160 was cloned into pMSRα-neo vector to prepare hGlucagonR/pMSRα-neo.
The plasmid hGlucagonR/pMSRα-neo obtained in (7) was introduced to the CRE-LUC/CHO-K1 cells obtained in (2) to obtain transformants. Next, a cell line induced to express luciferase, i.e., hGlucagonR/CRE-LUC/CHO-K1 cells, were selected from the obtained transformants by the addition of glucagon.
as §3
The glucagon R agonist activity was assayed in the same way as above using the hGlucagonR/CRE-LUC/CHO-K1 cells. The luciferase activity in the presence of 10 nM glucagon was defined as 100%, and the luciferase activity from the addition of DMSO instead of the test compound was defined as 0%. The glucagon agonist activity was calculated with a rise in intracellular cAMP concentration as an index.

Read-outs that look alike come from different tables or passages of the source. Square brackets hold non-standard residues; d marks the D form. Peptide text beside a SMILES is read from it. * marks the point of attachment. αMeY = C[C@](N)(Cc1ccc(O)cc1)C(=O)O; αMeF = C[C@](N)(Cc1ccccc1)C(=O)O; Isonicotinoyl = O=C(c1ccncc1)*; Aib = CC(C)(N)C(=O)O Bounds are passed on as bounds.

With `CC[C@H](C)[C@H](NC(=O)C(C)(C)NC(=O)[C@H](Cc1ccc(O)cc1)NC(=O)[C@H](CC(=O)O)NC(=O)[C@H](CO)NC(=O)[C@@H](NC(=O)[C@](C)(Cc1ccccc1)NC(=O)[C@@H](NC(=O)CNC(=O)[C@H](CCC(=O)O)NC(=O)C(C)(C)NC(=O)[C@@H](N)Cc1ccc(O)cc1)[C@@H](C)O)[C@@H](C)O)C(=O)NC(C)(C)C(=O)N[C@@H](CC(C)C)C(=O)N[C@@H](CC(=O)O)C(=O)N[C@@H](CCCCN)C(=O)N[C@@H](CCC(N)=O)C(=O)N[C@@H](C)C(=O)N[C@@H](CCC(N)=O)C(=O)N[C@@H](C)C(=O)N[C@@H](CCC(=O)O)C(=O)N[C@@H](Cc1ccccc1)C(=O)N[C@H](C(=O)N[C@@H](CCCCN)C(=O)N[C@@H](Cc1c[nH]c2ccccc12)C(=O)N[C@@H](CC(C)C)C(=O)N[C@@H](CC(C)C)C(=O)N[C@@H](CCCCN)C(=O)NCC(=O)NCC(=O)N1CCC[C@H]1C(=O)N[C@@H](CO)C(=O)N[C@@H](CO)C(=O)NCC(=O)N[C@@H](C)C(=O)N1CCC[C@H]1C(=O)N1CCC[C@H]1C(=O)N1CCC[C@H]1C(=O)N[C@@H](CO)C(N)=O)C(C)C` [Example 6] (H-Y[Aib]EGT[αMeF]TSDY[Aib]I[Aib]LDKQAQAEFVKWLLKGGPSSGAPPPS-NH2), the EC50 at human GIPR was 0.0073 nM; at human GLP-1R, 0.016 nM; at human glucagon R, greater than 1000 nM.
For the compound `CC[C@H](C)[C@H](NC(=O)C(C)(C)NC(=O)[C@H](Cc1ccc(O)cc1)NC(=O)[C@H](CC(=O)O)NC(=O)[C@H](CO)NC(=O)[C@@H](NC(=O)[C@](C)(Cc1ccccc1)NC(=O)[C@@H](NC(=O)CNC(=O)[C@H](CCC(=O)O)NC(=O)C(C)(C)NC(=O)[C@H](Cc1ccc(O)cc1)NC(=O)c1ccncc1)[C@@H](C)O)[C@@H](C)O)C(=O)NC(C)(C)C(=O)N[C@@H](CC(C)C)C(=O)N[C@@H](CC(=O)O)C(=O)N[C@@H](CCCCN)C(=O)N[C@@H](CCC(N)=O)C(=O)N[C@@H](C)C(=O)N[C@@H](CCC(N)=O)C(=O)N[C@@H](C)C(=O)N[C@@H](CCC(=O)O)C(=O)N[C@@H](Cc1ccccc1)C(=O)N[C@H](C(=O)N[C@@H](CCCCN)C(=O)N[C@@H](Cc1c[nH]c2ccccc12)C(=O)N[C@@H](CC(C)C)C(=O)N[C@@H](CC(C)C)C(=O)N[C@@H](CCCCN)C(=O)NCC(=O)NCC(=O)N1CCC[C@H]1C(=O)N[C@@H](CO)C(=O)N[C@@H](CO)C(=O)NCC(=O)N[C@@H](C)C(=O)N1CCC[C@H]1C(=O)N1CCC[C@H]1C(=O)N1CCC[C@H]1C(=O)N[C@@H](CO)C(=O)N[C@@H](CCCCN)C(N)=O)C(C)C` [Example 20] (Isonicotinoyl-Y[Aib]EGT[αMeF]TSDY[Aib]I[Aib]LDKQAQAEFVKWLLKGGPSSGAPPPSK-NH2), the concentration for a half-maximal effect (EC50) at human GIPR (hGIPR/CRE-LUC/CHO-K1 cells, 4 hours incubation, 10 nM GIP = 100%, read-out: Agonist activity (EC50) hGIPR) was 0.026 nM; on human GLP-1R (hGLP-1R/CRE-luc/CHO-K1 cells, 4 hours incubation, 10 nM GLP-1 = 100%, read-out: Agonist activity (EC50) hGLP-1R) it was 0.13 nM; on human glucagon R (hGlucagonR/CRE-LUC/CHO-K1 cells, 4 hours incubation, 10 nM glucagon = 100%, read-out: Agonist activity (EC50) hGCGR), greater than 1000 nM.
Turning to `CC[C@H](C)[C@H](NC(=O)C(C)(C)NC(=O)[C@H](Cc1ccc(O)cc1)NC(=O)[C@H](CC(=O)O)NC(=O)[C@H](CO)NC(=O)[C@@H](NC(=O)[C@](C)(Cc1ccccc1)NC(=O)[C@@H](NC(=O)CNC(=O)[C@H](CCC(=O)O)NC(=O)C(C)(C)NC(=O)[C@@H](N)Cc1ccc(O)cc1)[C@@H](C)O)[C@@H](C)O)C(=O)N[C@@](C)(Cc1ccc(O)cc1)C(=O)N[C@@H](CC(C)C)C(=O)N[C@@H](CC(=O)O)C(=O)N[C@@H](CCCCN)C(=O)N[C@@H](CCC(N)=O)C(=O)N[C@@H](C)C(=O)N[C@@H](CCC(N)=O)C(=O)N[C@@H](C)C(=O)N[C@@H](CCC(=O)O)C(=O)N[C@@H](Cc1ccccc1)C(=O)N[C@H](C(=O)N[C@@H](CCCCN)C(=O)N[C@@H](Cc1c[nH]c2ccccc12)C(=O)N[C@@H](CC(C)C)C(=O)N[C@@H](CC(C)C)C(=O)N[C@@H](CCCCN)C(=O)NCC(=O)NCC(=O)N1CCC[C@H]1C(=O)N[C@@H](CO)C(=O)N[C@@H](CO)C(=O)NCC(=O)N[C@@H](C)C(=O)N1CCC[C@H]1C(=O)N1CCC[C@H]1C(=O)N1CCC[C@H]1C(=O)N[C@@H](CO)C(=O)N[C@@H](CCCCN)C(N)=O)C(C)C` [Example 17] (H-Y[Aib]EGT[αMeF]TSDY[Aib]I[αMeY]LDKQAQAEFVKWLLKGGPSSGAPPPSK-NH2), the results for the EC50 at human GIPR, at human GLP-1R and on human glucagon R were 0.014 nM, 0.018 nM and greater than 1000 nM, respectively.
